# Literature values, collected in patent US11471445B2, “Compositions for the prevention and treatment of acute renal injury” (AKI Therapeutics ApS, priority 2017, dated 2022).
# Columns and labels:
# IRI = details: in vivo
# [1] = 30 min after intravenous injection
# rat heart = details: pretreatment
# [2] = system: cerebral ischemia-reperfusion injury; details: mice
# hepatic IRI = details: rats, pretreatment
compound,measurement,setting,value
"COc1ccc([C@@H]2CC(=O)c3c(O)cc(O[C@@H]4O[C@H](CO[C@@H]5O[C@@H](C)[C@H](O)[C@@H](O)[C@H]5O)[C@@H](O)[C@H](O)[C@H]4O)cc3O2)cc1O [Hesperidin, hesperidin]",effect on IRI / ischemia,IRI,protective effects on IRI in various organs
triptolide-lysozyme conjugate: Triptolide conjugated to lysozyme by an ester linkage with a succinic acid spacer,renal concentration of conjugate relative to equivalent dose of drug,[1],20 fold
CC(C)[C@]12O[C@H]1[C@@H]1O[C@]13[C@]1(O[C@H]1C[C@H]1C4=C(CC[C@@]13C)C(=O)OC4)[C@@H]2O [Triptolide],water solubility,,very low water solubility
COc1ccc(-c2cc(=O)c3c(O)cc(O[C@@H]4O[C@H](CO[C@@H]5O[C@@H](C)[C@H](O)[C@@H](O)[C@H]5O)[C@@H](O)[C@H](O)[C@H]4O)cc3o2)cc1O [diosmin],consequences of IRI in ex vivo rat heart,rat heart,ameliorates the consequences of IRI
same,effect on cerebral ischemia-reperfusion injury,[2],ameliorates the consequences of IRI
same,consequences of hepatic IRI,hepatic IRI,ameliorates the consequences of IRI
β-escin,effect on IRI / ischemia,IRI,ameliorates the effects of focal cerebral ischemia
